Measurements from BindingDB's records for doi:10.1021/cb700200w (Novartis, 2008).

biological target: T1, Aurora kinase A (Homo sapiens, UniProt O14965); test: Aurora Kinase SPA Assay; conditions: not given
T1 sequence (O14965 whole entry): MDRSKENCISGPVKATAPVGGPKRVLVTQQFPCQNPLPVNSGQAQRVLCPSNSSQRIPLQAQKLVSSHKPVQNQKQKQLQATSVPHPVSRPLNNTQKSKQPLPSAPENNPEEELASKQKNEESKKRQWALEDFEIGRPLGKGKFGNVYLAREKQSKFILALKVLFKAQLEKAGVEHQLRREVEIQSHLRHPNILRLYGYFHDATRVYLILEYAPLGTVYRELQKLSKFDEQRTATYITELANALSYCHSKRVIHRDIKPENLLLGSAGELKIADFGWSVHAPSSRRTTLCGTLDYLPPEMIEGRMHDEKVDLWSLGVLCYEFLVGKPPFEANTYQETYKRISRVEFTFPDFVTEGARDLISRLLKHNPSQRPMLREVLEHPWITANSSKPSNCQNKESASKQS
Method: The biochemical activity of compounds was determined by incubation with Aurora A and substrates in the presence ATP/[gamma-33P] ATP. After incubation, the reaction was stopped and the phosphorylated substrate was separated from nonincorporated radioactive ATP using SPA beads (Amersham Pharmacia Biotech), counted using TopCount (Packard) to measure substrate-incorporated phosphate.

IC50 | Compound
4400 nM | CCN1CCN(Cc2ccc(Nc3ncc(C#N)s3)nc2)CC1 [2-({5-[(4-ethylpiperazin-1-yl)methyl]pyridin-2-yl}amino)-1,3-thiazole-5-carbonitrile]
3800 nM | CN1CCN(Cc2ccc(Nc3ncc(C#N)s3)nc2)CC1 [2-({5-[(4-methylpiperazin-1-yl)methyl]pyridin-2-yl}amino)-1,3-thiazole-5-carbonitrile]
5400 nM | N#Cc1cnc(Nc2ccc(CN3CCN(CCO)CC3)cn2)s1 [2-[(5-{[4-(2-hydroxyethyl)piperazin-1-yl]methyl}pyridin-2-yl)amino]-1,3-thiazole-5-carbonitrile]
1400 nM | N#Cc1cnc(Nc2ccc(CN3CCOCC3)cn2)s1 [2-{[5-(morpholin-4-ylmethyl)pyridin-2-yl]amino}-1,3-thiazole-5-carbonitrile]
> 10000 nM | O=C(Nc1ccccc1)Nc1ncc(Br)s1 [3-(5-bromo-1,3-thiazol-2-yl)-1-phenylurea]
1220 nM | COCCNC(=O)c1cccc(Nc2ncc(Br)s2)c1 [3-[(5-bromo-1,3-thiazol-2-yl)amino]-N-(2-methoxyethyl)benzamide]
740 nM | CNC(=O)c1cccc(Nc2ncc(Br)s2)c1 [3-[(5-bromo-1,3-thiazol-2-yl)amino]-N-methylbenzamide]
440 nM | O=C(O)c1cccc(Nc2ncc(Br)s2)c1 [3-[(5-bromo-1,3-thiazol-2-yl)amino]benzoic acid]
1500 nM | N#Cc1cccc(Nc2ncc(Br)s2)c1 [3-[(5-bromo-1,3-thiazol-2-yl)amino]benzonitrile]
880 nM | CNC(=O)N1CCN(Cc2ccc(Nc3ncc(C#N)s3)nc2)CC1 [4-({6-[(5-cyano-1,3-thiazol-2-yl)amino]pyridin-3-yl}methyl)-N-methylpiperazine-1-carboxamide]
4520 nM | CCN(CC)CCNC(=O)c1ccc(Nc2ncc(Br)s2)cc1 [4-[(5-bromo-1,3-thiazol-2-yl)amino]-N-[2-(diethylamino)ethyl]benzamide]
5250 nM | CN(C)CCNC(=O)c1ccc(Nc2ncc(Br)s2)cc1 [4-[(5-bromo-1,3-thiazol-2-yl)amino]-N-[2-(dimethylamino)ethyl]benzamide]
2300 nM | O=C(NCCN1CCOCC1)c1ccc(Nc2ncc(Br)s2)cc1 [4-[(5-bromo-1,3-thiazol-2-yl)amino]-N-[2-(morpholin-4-yl)ethyl]benzamide]
5320 nM | O=C(NCCN1CCCC1)c1ccc(Nc2ncc(Br)s2)cc1 [4-[(5-bromo-1,3-thiazol-2-yl)amino]-N-[2-(pyrrolidin-1-yl)ethyl]benzamide]
> 10000 nM | Nc1ncc(Br)s1 [5-bromo-1,3-thiazol-2-amine]
> 10000 nM | Fc1ccc(Nc2ncc(Br)s2)c(F)c1 [5-bromo-N-(2,4-difluorophenyl)-1,3-thiazol-2-amine]
> 10000 nM | Fc1ccc(F)c(Nc2ncc(Br)s2)c1 [5-bromo-N-(2,5-difluorophenyl)-1,3-thiazol-2-amine]
5500 nM | Fc1ccccc1Nc1ncc(Br)s1 [5-bromo-N-(2-fluorophenyl)-1,3-thiazol-2-amine]
2700 nM | COc1ccccc1Nc1ncc(Br)s1 [5-bromo-N-(2-methoxyphenyl)-1,3-thiazol-2-amine]

IC50 | Compound
3000 nM | Cc1ccccc1Nc1ncc(Br)s1 [5-bromo-N-(2-methylphenyl)-1,3-thiazol-2-amine]
> 10000 nM | Brc1cnc(NCCc2ccccc2)s1 [5-bromo-N-(2-phenylethyl)-1,3-thiazol-2-amine]
> 10000 nM | Clc1ccc(Nc2ncc(Br)s2)cc1Cl [5-bromo-N-(3,4-dichlorophenyl)-1,3-thiazol-2-amine]
> 10000 nM | Clc1cc(Cl)cc(Nc2ncc(Br)s2)c1 [5-bromo-N-(3,5-dichlorophenyl)-1,3-thiazol-2-amine]
> 10000 nM | Cc1cc(C)cc(Nc2ncc(Br)s2)c1 [5-bromo-N-(3,5-dimethylphenyl)-1,3-thiazol-2-amine]
9300 nM | Fc1cccc(Nc2ncc(Br)s2)c1 [5-bromo-N-(3-fluorophenyl)-1,3-thiazol-2-amine]
900 nM | COc1cccc(Nc2ncc(Br)s2)c1 [5-bromo-N-(3-methoxyphenyl)-1,3-thiazol-2-amine]
1100 nM | Cc1cccc(Nc2ncc(Br)s2)c1 [5-bromo-N-(3-methylphenyl)-1,3-thiazol-2-amine]
5000 nM | Brc1cnc(Nc2cccc3ccccc23)s1 [5-bromo-N-(naphthalen-1-yl)-1,3-thiazol-2-amine]
2000 nM | Brc1cnc(Nc2ccccn2)s1 [5-bromo-N-(pyridin-2-yl)-1,3-thiazol-2-amine]
3600 nM | Brc1cnc(Nc2cccnc2)s1 [5-bromo-N-(pyridin-3-yl)-1,3-thiazol-2-amine]
7800 nM | Brc1cnc(Nc2ccncc2)s1 [5-bromo-N-(pyridin-4-yl)-1,3-thiazol-2-amine]
> 10000 nM | FC(F)(F)c1ccccc1Nc1ncc(Br)s1 [5-bromo-N-[2-(trifluoromethyl)phenyl]-1,3-thiazol-2-amine]
500 nM | CSc1cccc(Nc2ncc(Br)s2)c1 [5-bromo-N-[3-(methylsulfanyl)phenyl]-1,3-thiazol-2-amine]
10000 nM | FC(F)(F)c1cccc(Nc2ncc(Br)s2)c1 [5-bromo-N-[3-(trifluoromethyl)phenyl]-1,3-thiazol-2-amine]
2500 nM | N#Cc1cnc(Nc2ccccn2)s1 [ACS Chemical Biology 3180 Compound 63]
> 10000 nM | CC(=O)Nc1ncc(Br)s1 [N-(5-bromo-1,3-thiazol-2-yl)acetamide]
5500 nM | O=C(Nc1ncc(Br)s1)c1ccccc1 [N-(5-bromo-1,3-thiazol-2-yl)benzamide]
> 10000 nM | FC(F)(F)c1cc(Nc2ncc(Br)s2)cc(C(F)(F)F)c1 [N-[3,5-bis(trifluoromethyl)phenyl]-5-bromo-1,3-thiazol-2-amine]

same assay, conditions: pH 7; 22 °C

IC50 | Compound
600 nM | Nc1ccc(Nc2ncc(Br)s2)cc1 [1-N-(5-bromo-1,3-thiazol-2-yl)benzene-1,4-diamine]
1700 nM | CC(=O)c1ccc(Nc2ncc(Br)s2)cc1 [1-{4-[(5-bromo-1,3-thiazol-2-yl)amino]phenyl}ethan-1-one]
330 nM | COCC(C)NC(=O)c1ccc(Nc2ncc(Br)s2)cc1 (stereo not drawn) [4-[(5-bromo-1,3-thiazol-2-yl)amino]-N-(1-methoxypropan-2-yl)benzamide]
1480 nM | O=C(NCCO)c1ccc(Nc2ncc(Br)s2)cc1 [4-[(5-bromo-1,3-thiazol-2-yl)amino]-N-(2-hydroxyethyl)benzamide]
980 nM | COCCN(C)C(=O)c1ccc(Nc2ncc(Br)s2)cc1 [4-[(5-bromo-1,3-thiazol-2-yl)amino]-N-(2-methoxyethyl)-N-methylbenzamide]
97 nM | COCCNC(=O)c1ccc(Nc2ncc(Br)s2)cc1 [4-[(5-bromo-1,3-thiazol-2-yl)amino]-N-(2-methoxyethyl)benzamide]
2100 nM | N#Cc1ccc(Nc2ncc(Br)s2)cc1 [4-[(5-bromo-1,3-thiazol-2-yl)amino]benzonitrile]
510 nM | Oc1ccc(Nc2ncc(Br)s2)cc1 [4-[(5-bromo-1,3-thiazol-2-yl)amino]phenol]
> 10000 nM | Fc1ccc(Nc2nc(Br)cs2)cc1 [4-bromo-N-(4-fluorophenyl)-1,3-thiazol-2-amine]
2900 nM | Brc1ccc(Nc2ncc(Br)s2)cc1 [5-bromo-N-(4-bromophenyl)-1,3-thiazol-2-amine]
3000 nM | Clc1ccc(Nc2ncc(Br)s2)cc1 [5-bromo-N-(4-chlorophenyl)-1,3-thiazol-2-amine]
> 10000 nM | CN(c1ccc(F)cc1)c1ncc(Br)s1 [5-bromo-N-(4-fluorophenyl)-N-methyl-1,3-thiazol-2-amine]
> 10000 nM | Brc1cnc(Nc2ccc(I)cc2)s1 [5-bromo-N-(4-iodophenyl)-1,3-thiazol-2-amine]
1700 nM | COc1ccc(Nc2ncc(Br)s2)cc1 [5-bromo-N-(4-methoxyphenyl)-1,3-thiazol-2-amine]
2840 nM | Cc1ccc(Nc2ncc(Br)s2)cc1 [5-bromo-N-(4-methylphenyl)-1,3-thiazol-2-amine]
13000 nM | O=[N+]([O-])c1ccc(Nc2ncc(Br)s2)cc1 [5-bromo-N-(4-nitrophenyl)-1,3-thiazol-2-amine]
1400 nM | Brc1cnc(Nc2ccc(Oc3ccccc3)cc2)s1 [5-bromo-N-(4-phenoxyphenyl)-1,3-thiazol-2-amine]
900 nM | Brc1cnc(Nc2ccc(Oc3ccncc3)cc2)s1 [5-bromo-N-[4-(pyridin-4-yloxy)phenyl]-1,3-thiazol-2-amine]
17200 nM | FC(F)(F)Oc1ccc(Nc2ncc(Br)s2)cc1 [5-bromo-N-[4-(trifluoromethoxy)phenyl]-1,3-thiazol-2-amine]
2400 nM | FC(F)(F)c1ccc(Nc2ncc(Br)s2)cc1 [5-bromo-N-[4-(trifluoromethyl)phenyl]-1,3-thiazol-2-amine]
1100 nM | Brc1cnc(Nc2ccccc2)s1 [5-bromo-N-phenyl-1,3-thiazol-2-amine]
1100 nM | Fc1ccc(Nc2ncc(Cl)s2)cc1 [5-chloro-N-(4-fluorophenyl)-1,3-thiazol-2-amine]
> 10000 nM | Fc1ccc(Nc2nccs2)cc1 [N-(4-fluorophenyl)-1,3-thiazol-2-amine]
500 nM | Fc1ccc(Nc2ncc(I)s2)cc1 [N-(4-fluorophenyl)-5-iodo-1,3-thiazol-2-amine]
360 nM | CC(=O)Nc1ccc(Nc2ncc(Br)s2)cc1 [N-{4-[(5-bromo-1,3-thiazol-2-yl)amino]phenyl}acetamide]
